Data reported in patent publication US20120157401A1, “METHODS FOR TREATING NEUROFIBROMATOSIS” (PTC Therapeutics, Inc., priority 2009, published 2012).
Marks after values point to notes of the source that are not given here.

What was measured:
[1] = system: human VEGF121 and VEGF165; assay: HT1080 xenograft time course: pathologic plasma human VEGF; assay type: in vivo
Protocol: Experimental Design. HT1080 cells (5×10^6 cells/mouse) were implanted subcutaneously in male athymic nude mice.
Tumor size was measured by calipers immediately pre-treatment and at the time of sacrifice on Day 1, 2, or 3 (5 mice per group per day). At sacrifice, the plasma was collected for assay of pathologic human VEGF concentration using an ELISA that recognizes human VEGF121 and VEGF165 (as described in Section 9.1.1.1).

[2] = system: bacterial reverse mutation; assay: Bacterial reverse mutation study; assay type: cell-based; details: with and without metabolic activation
Protocol: Genotoxicity was assessed in a battery of in vitro and in vivo studies that included a bacterial reverse mutation study, a chromosome aberration study in Chinese hamster ovary (CHO) cells, and a micronucleus study in rats by the oral route. The in vitro studies were performed in the presence and absence of an exogenous metabolic activation system.

[3] = system: SY5Y orthotopic xenografts; assay: Orthotopic SY5Y neuroblastoma tumor model (kidney capsule): tumor weight; assay type: in vivo
From the text: (§1) Experimental Design. In orthotopic tumor models, human tumor cells are implanted into the mouse in an organ that corresponds to the location from which the tumors arise. Such models may provide a better predictor of clinical efficacy than injection of tumors into the flanks of nude mice. See Hoffman, Invest. New Drugs 1999, 17(4):343-59. SY5Y neuroblastoma or SKNEP Ewing sarcoma tumor cells (1×10^6 cells/mouse) were implanted into the kidney capsule of female athymic nude mice according to published methods. See Huang et al., Proc. Natl. Acad. Sci. USA 2003, 100(13):7785-90. One week after implantation of each type of tumor, mice were divided into 2 groups and were administered a test Compound as shown in Table 21.
(§2) After 5 weeks of treatment, the mice were sacrificed, and the weights of the tumors were assessed.

[4] = system: human VEGF121 and VEGF165; assay: HT1080 xenograft dose response: intratumoral and pathologic plasma human VEGF ELISA; assay type: in vivo
Protocol: Experimental Study Design. HT1080 cells (5×10^6 cells/mouse) were implanted subcutaneously in male athymic nude mice.
Tumor size was measured using calipers at periodic intervals during the study (data shown in Section 9.2.2). […] The study was ended after 18 days, when the vehicle treated tumors reached a mean volume of ˜1755 mm^3. […] Mice were sacrificed, and excised tumors were homogenized in buffer containing protease inhibitors. Both terminal intratumoral and pathologic plasma human VEGF levels were measured using an ELISA that recognizes human VEGF121 and VEGF165 (as described in Section 9.1.1.1). Intratumoral VEGF levels were normalized to the total tumor protein concentration, while pathologic plasma human VEGF levels were expressed in pg/mL of plasma.

[5] = system: VEGF189 and VEGF206 isoforms; assay: In-Cell Western / Western blot of matrix associated VEGF189/206 production in HT1080 cells; assay type: cell-based, human; details: HT1080, normoxic, 48 hours
Protocol: Experimental Design. HT1080 (human fibrosacoma) cell cultures were established under normoxic conditions (21% oxygen). HT1080 cells constitutively overproduce VEGF even under normoxic conditions. […] At the completion of treatment, the cells were washed and harvested. Cells were incubated with a primary antibody that recognizes the VEGF189 and VEGF206 isoforms. Infrared-dye labeled antibodies were applied secondarily, and the amounts of VEGF189 and VEGF206 were determined using the IN-CELL WESTERN® assay and ODYSSEY® infrared imaging system (Li-Cor, Lincoln, Nebr., USA); results are expressed as percentage inhibition relative to vehicle treated controls. Conventional Western blotting using the same primary antibody was also performed to confirm the presence of the matrix associated isoforms; for these experiments actin was used as a loading control. Actin is a ubiquitous housekeeping protein that is not known to be post transcriptionally regulated.

[6] = 7-day oral toxicity study in dogs; assay type: in vivo
[7] = system: SKNEP orthotopic xenografts; assay: Orthotopic SKNEP Ewing sarcoma tumor model (kidney capsule): tumor weight; assay type: in vivo, athymic nude mice; details: 5 weeks of treatment
From the text: as §1, §2

LNCaP xenografts = assay: LNCaP prostate cancer xenograft: tumor growth (Table 20); assay type: in vivo, athymic nude mice
Protocol: Experimental Design. The LNCaP cell line is derived from a lymph node metastasis.
Tumor size was measured by calipers at periodic intervals during the study. When the mean tumor size in a mouse exceeded 1500 mm^3, mice in that group were sacrificed and both tumor and plasma were assayed for pathologic VEGF concentration as described in Section 9.1.1.1.

[8] = Oral pharmacokinetics in mice; assay type: in vivo
Protocol: The pharmacokinetic evaluations in mice were adjuncts to the primary pharmacodynamic xenograft studies. The evaluations in rats included toxicokinetic assessments in single-dose, 7-day, and 28-day toxicology studies as well as a mass-balance study after a single oral dose of ^14C-Compound #10. The evaluations in dogs included toxicokinetic assessments in 7-day and 28-day toxicology studies. In the studies performed, rodents were dosed once daily with Compound #10 formulated in vehicle and administered via oral gavage.

SY5Y xenografts = assay: SY5Y neuroblastoma subcutaneous xenograft: tumor growth; assay type: in vivo
Protocol: Experimental Design. SY5Y cells are derived from a human neuroblastoma, a childhood tumor arising in neural crest cells. SY5Y cells (1×10^7 cells/mouse) were implanted subcutaneously in male athymic nude mice.
Tumor size was measured by calipers at periodic intervals. When the average tumor size in a group exceeded 2000 mm^3, the mice in the group were sacrificed and excised tumors were assayed for intratumoral VEGF concentration as described in Section 9.1.1.1.

CYP2C9 = molecular target: T1, CYP2C9 (Homo sapiens, UniProt P11712); assay: CYP inhibition: CYP2C9; assay type: in vitro ADME; details: human hepatic microsomes or recombinant isoenzymes
T1 construct: host or cells: human hepatic microsomes or recombinant isoenzyme (not distinguished)
From the text: It is possible that in certain clinical trial subjects, such agents may need to be adjusted for dosing or replaced by alternative agents that are not metabolized by CYP2D6, particularly when such agents may have a low therapeutic index.

[9] = In vitro plasma protein binding of 14C-radiolabeled Compound #10; assay type: in vitro ADME, mice, rats, dogs, monkeys, and humans; details: mouse, rat, dog, monkey, human, all species, 0.05 to 50 μg/mL, read-out: Plasma protein binding, overall mean
[10] = all Compound #10 dose groups (0.3-10 mg/kg, oral, 18 days)
[11] = LNCaP xenografts, male athymic nude mice, 10 mg/kg M-W-F oral gavage
[12] = 50 mg/kg QD, 5 days per week (Table 18)

T1 sequence (P11712 whole entry): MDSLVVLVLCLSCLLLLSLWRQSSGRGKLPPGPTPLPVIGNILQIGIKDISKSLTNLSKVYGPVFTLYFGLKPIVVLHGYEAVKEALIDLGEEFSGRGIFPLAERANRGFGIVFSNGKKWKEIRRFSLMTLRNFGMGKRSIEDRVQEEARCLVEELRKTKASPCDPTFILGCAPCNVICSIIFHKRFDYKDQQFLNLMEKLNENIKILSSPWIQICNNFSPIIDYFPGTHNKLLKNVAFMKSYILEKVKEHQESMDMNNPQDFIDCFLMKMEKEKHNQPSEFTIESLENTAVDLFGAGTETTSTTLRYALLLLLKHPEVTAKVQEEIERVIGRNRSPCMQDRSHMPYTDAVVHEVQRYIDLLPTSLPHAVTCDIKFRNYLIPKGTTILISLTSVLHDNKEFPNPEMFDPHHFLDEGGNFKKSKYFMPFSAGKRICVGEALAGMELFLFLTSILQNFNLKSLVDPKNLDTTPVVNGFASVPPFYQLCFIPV

COc1ccc(C2c3[nH]c4ccc(Cl)cc4c3CCN2C(=O)Oc2ccc(Cl)cc2)cc1 (racemic) [Compound #10]
Course of pathologic plasma human VEGF concentrations ([1]; Days 2 and 3): continued to decline
Pathologic plasma human VEGF levels vs control animals ([1]; by Day 1): numerically lower than in control animals
Genotoxic effects, bacterial reverse mutation [2]: no evidence of genotoxic effects
Growth of orthotopic SY5Y tumors (tumor weight) ([3]; 5 weeks of treatment): completely prevented growth
Toxicity on observing the animals ([3]; orthotopic SKNEP and SY5Y mice): no evidence of toxicity
Reduction in tumor and pathologic plasma human VEGF concentrations ([4]; 0.3 mg/kg BID): partial reductions
Pathologic human VEGF levels in plasma [4, 10]: significantly suppressed
Pathologic human VEGF levels in tumors [4, 10]: significantly suppressed
Reduction in tumor and pathologic plasma human VEGF concentrations ([4]; dose levels of ≧1 mg/kg BID): essentially maximal
Inhibition of VEGF189 and VEGF206 isoforms [5]: potent concentration-dependent inhibition
Dose of maximal exposures ([6]; 7 consecutive days): 30 mg/kg/dose BID
Treatment-related clinical findings ([6]; 7 days, males and females): increased incidence and frequency of soft stools
Growth of orthotopic SKNEP tumors (tumor weight) [7]: completely prevented growth
Time to tumor progression (time to reach ≧1000 mm^3) (LNCaP xenografts; 10 mg/kg M-W-F): prolonged
Toxicity on observing the animals (LNCaP xenografts; LNCaP xenograft mice): no evidence of toxicity
Mean % Inhibition of Tumor Size vs Vehicle at Day 35 (LNCaP xenografts; [11]): 36%
Median Time to Tumor Size ≧1000 mm^3 (LNCaP xenografts; [11]): 38 days
Oral bioavailability [8]: orally bioavailable
concentration at 24 h ([8]; mouse, plasma, oral, 1-mg/kg dose level, Day 1, read-out: Plasma trough concentration at 24 hours): 100 to 150 ng/mL
Mean % Inhibition of Tumor Size vs Vehicle at Day 17 (SY5Y xenografts; [12]): 73* %
Median Time to Tumor Size ≧1000 mm^3 (SY5Y xenografts; [12]): 35 days
Toxicity on observing the animals (SY5Y xenografts; SY5Y xenograft mice): no evidence of toxicity
Inhibition of CYP2C9 (CYP2C9): No meaningful inhibition
fraction unbound [9]: ≤ 0.005
